Earlier results as cited in patent US9918950B2, “Targeted treatment of anerobic cancer” (University Hospitals Cleveland Medical Center, priority 2012, dated 2018).

What was measured:
[1] = test system: HCT116 human colon carcinoma cells; settings: HCT116 window chamber tumors
[2] = test system: 4T1 mouse mammary carcinoma cells; settings: 4T1 window chamber tumors

Nc1n[n+]([O-])c2ccccc2[n+]1[O-] [tirapazamine]
time required for onset of incipient angiogenesis versus saline treatment ([1]; n=8, log-rank P=0.33): No significant difference | median time required for the initial hypoxic response ([1]; versus 3.5 days saline, Kaplan-Meier, n=8, P<0.001): 9.5 days | time required for incipient angiogenesis versus saline treatment ([2]; n=8, log-rank P=0.66): No significant difference | median time required for the initial hypoxic response ([2]; versus 4 days saline, n=8, P<0.05): 5.5 days
